The record followed here is patent US20240325420A1, “COMPOSITION INCLUDING PAEONIFLORIN FOR PREVENTION OR TREATMENT OF CACHEXIA AND MUSCLE LOSS” (CHUNG ANG UNIVERSITY INDUSTRY ACADEMIC COOPERATION …, priority 2021, published 2024).

Type in all cases: in vivo
In assay [1] the test system is muscle-specific ubiquitin E3 ligases (MuRF1 and MAFbx). In words: Protein levels of MuRF1 and MAFbx in gastrocnemius muscle by Western blotting. Particulars: C57BL/6 mice, cisplatin-treated, Pae 10 and Pae 20 vs vehicle. How it is done:
(§1) In addition, cisplatin-treated mice orally administered the same volume of distilled water were designated as the vehicle group. After completion of drug treatment, the mice of each group were euthanized with 10 mg/kg alfaxalone (Jurox, Rutherford, Australia). Blood was collected in test tubes containing EDTA, and centrifuged, and plasma was separated therefrom. Gastrocnemius and quadriceps skeletal muscles were dissected and weighed. The skeletal muscles were rapidly frozen in liquid nitrogen to be used for RT-qPCR, Western blotting, and ELISA.
Proteins were extracted from skeletal muscle using NucleoSpin kits (Macherey-Nagel, Duren, Germany) and quantified using the BCA Protein Assay Kit (Pierce, Rockford, IL, USA). Anti-β-actin antibody was used to quantify protein loading. For myosin protein (MyHC, myosin heavy chain), myogenic factor (MyoD), and NF-κB signaling system (p-IKK, IKK, p-IκB, and IκB), protein levels in the gastrocnemius muscle were measured by Western blotting. Band intensities were quantified using ImageJ software (NIH, Bethesda, MD, USA).
(§2) In order to measure the mRNA and protein levels of major factors involved in muscle loss, muscle contraction, and muscle differentiation, the mRNA and protein levels in the skeletal muscle tissues from C57BL/6 mice were measured by real-time PCR and Western blotting.

For another assay, the system named is GDF-15. The assay can be described thus: Plasma GDF-15 by ELISA in mice with cisplatin-induced cachexia. Particulars: C57B/6 mice; cisplatin plus paeoniflorin-treated group vs cisplatin-treated group; FIG. 13B. How it is done: as §1
(§3) The levels of TNF-α and interleukin (IL)-6 were measured using respective mouse ELISA kits (Invitrogen, Waltham, MA, USA). IL-1β and GDF-15 levels were measured using respective Quantikine ELISA kits (R&D Systems, Minneapolis, MN, USA).
The protein concentration of GDF-15 in the plasma was analyzed by ELISA.

Assay [2] concerns muscle-specific ubiquitin E3 ligases (MuRF1 and MAFbx). The assay can be described thus: mRNA levels of MuRF1 and MAFbx in gastrocnemius muscle by real-time PCR. Conditions: C57BL/6 mice, cisplatin-treated, Pae 10 and Pae 20 vs vehicle, FIG. 5. On the procedure: as §1
Total RNA was isolated from skeletal muscle using Qiazol (Qiagen, Germany), and then the mRNA levels of pro-inflammatory cytokines and muscle-specific ubiquitin E3 ligases (MuRF1 and MAFbx) were measured by real-time PCR.
as §2

The subject of assay [3] is Balb/c mice with cisplatin-induced cachexia. In words: Body weight and muscle mass in cisplatin-treated Balb/c mice. On the procedure:
The animal experiments were performed in accordance with internationally accepted principles for laboratory animal use and care, and the corresponding study protocol was reviewed and approved by the Institutional Animal Care and Use Committee (IACUC) at Chung-Ang University (approval #2021-00022). Four-week-old female C57BL/6 mice and Balb/c mice were purchased from Raonbio Inc. (Yongin, Korea) and were provided with standard laboratory diet and water ad libitum in the animal facility of Chung-Ang University. After a week of acclimation, the mice were intraperitoneally injected three times with 3 mg/kg/day cisplatin, suspended in 200 μL saline, every other day. Control group mice (sham-treated mice) were injected with the same volume of saline under the same regimen. The cisplatin-treated groups were orally administered paeoniflroin (Pae) or megestrol acetate (MA), suspended in 200 μL distilled water, every day until euthanasia.
Specifically, the cisplatin-treated groups were orally administered paeoniflorin (prepared in Example 1) at a dose of 5 (Pae 5 group), 10 (Pae 10 group), or 20 (Pae 20 group) mg/kg once daily for 9 days. The comparative drug-treated group was orally administered megestrol acetate (MA), which is currently most commonly prescribed for cancer cachexia patients in clinical practice, at a dose of 160 mg/kg (=800 mg [daily human dose]/60 kg [average human body weight]×12 [dose equivalent factor based on human:mouse body surface area ratio], once daily for 9 days.
as §1

The test system of another assay is TNF-α, IL-6 and IL-1β. In words: Protein levels of pro-inflammatory cytokines in gastrocnemius muscle, Balb/c mice. Particulars: cisplatin-treated. On the procedure:
as §1, §3

The next assay concerns TNF-α. The assay can be described thus: Plasma TNF-α by ELISA in mice with cisplatin-induced cachexia. Conditions: C57B/6 mice; cisplatin plus paeoniflorin-treated group vs cisplatin-treated group; FIG. 13A. On the procedure: as §1, §3
The protein concentration of the pro-inflammatory cytokine TNF-α in the plasma of mice was analyzed by ELISA.

For assay [4], the system named is NF-κB signaling (p-IKK, p-IκB, IκB, NF-κB p65). In words: NF-κB signaling in skeletal muscle by Western blotting. Conditions: gastrocnemius muscle, C57BL/6 mice, cisplatin-treated, Pae 10 and Pae 20. How it is done: Proteins were extracted from skeletal muscle using NucleoSpin kits (Macherey-Nagel, Duren, Germany) and quantified using the BCA Protein Assay Kit (Pierce, Rockford, IL, USA). Anti-β-actin antibody was used to quantify protein loading. For myosin protein (MyHC, myosin heavy chain), myogenic factor (MyoD), and NF-κB signaling system (p-IKK, IKK, p-IκB, and IκB), protein levels in the gastrocnemius muscle were measured by Western blotting. Band intensities were quantified using ImageJ software (NIH, Bethesda, MD, USA). Nuclear and cytoplasmic lysates were prepared from the skeletal muscle using a nuclear extraction kit (Active Motif, Carlsbad, CA, USA). The protein concentration of both lysates was measured using the BCA Protein Assay Kit (Pierce). Anti-NF-κB p65 was used as the primary antibody, and 10 μg of protein per lysate was analyzed by Western blotting. TBP (TATA box-binding protein) and β-actin were as controls for the nuclear and cytosolic lysates, respectively. The target DNA binding activity of NF-κB was measured using the TransAM NF-κB ELISA kit (Active Motif, USA). NF-κB signaling was analyzed by Western blotting of the total extract and the cytosolic and nuclear fraction from the skeletal muscle of C57BL/6 mice.

Turning to `C[C@@]12C[C@@]3(O)O[C@@H](O1)[C@]1(COC(=O)c4ccccc4)[C@H]3C[C@@]12O[C@@H]1O[C@H](CO)[C@@H](O)[C@H](O)[C@H]1O` [paeoniflorin], the MuRF1 protein level result in assay [1] (FIG. 6A) is “decreased”. Besides, the MAFbx protein level result in assay [1] (FIG. 6B) is on record as “decreased”. In addition, the “plasma concentration of GDF-15” value in the assay on GDF-15 is “significantly decreased”. Besides, in assay [2], the “MAFbx mRNA level” value is on record as “decreased” and the “MuRF1 mRNA level” value is reported as “decreased”. For the same compound, in assay [3] (Pae 5, Pae 10, Pae 20 (mg/kg orally daily) vs negative control group, FIG. 2A), the body weight result was “increased”. The “weight of gastrocnemius muscle” value in assay [3] (Pae 5, Pae 10, Pae 20 vs negative control group, FIG. 2B) is recorded as “increased”. Besides, the “weight of quadriceps muscle” value in assay [3] (Pae 5, Pae 10, Pae 20 vs negative control group, FIG. 2C) is reported as “increased”. Besides, the “TNF-α protein level in the gastrocnemius muscle” value in the assay on TNF-α, IL-6 and IL-1β (FIG. 9A) is given as “similarly obtained”. Besides, the “IL-6 protein level in the gastrocnemius muscle” value with TNF-α, IL-6 and IL-1β (FIG. 9B) is listed as “similarly obtained”. Also, the “IL-1β protein level in the gastrocnemius muscle” value in the assay with TNF-α, IL-6 and IL-1β (FIG. 9C) is recorded as “similarly obtained”. In the assay with TNF-α, the “plasma concentration of TNF-α” value was “significantly decreased”. In addition, the “level of p-IKK (phospho-IKK)” value in assay [4] (FIG. 10A) was “reduced again”. In addition, the “level of p-IκB (phospho-IκB)” value in assay [4] (FIG. 10B) is reported as “reduced again”. Moreover, the “level of IκB” value in assay [4] (FIG. 11) was “increased”. The “cytosolic level of NF-κB” value in assay [4] (FIG. 12A) is given as “increased”. Also, the “nuclear level of NF-κB” value in assay [4] (FIG. 12B) is “decreased”.
